# Measured values: patent US12390477B2, “Ganaxolone for use in treating tuberous sclerosis complex and seizure disorders” (Immedica Pharma US Inc., priority 2021, dated 2025)
# Columns and labels:
# CYP2C19 = CYP2C19 (Homo sapiens, UniProt P33261); conditions: cited from earlier work
# [1] = Phase 2 open-label TSC trial (Part A): ganaxolone plasma/serum concentration; type: in vivo, human
# Procedure: (§1) Pharmacokinetics, Safety and tolerability were assessed.
# TSC-associated seizures = test: Phase 2 open-label trial of adjunctive ganaxolone in TSC-related epilepsy (Part A): seizure frequency; type: in vivo, human
# Procedure: A Phase 2 open-label 12 week trial of adjunctive ganavolone treatment (Part A) in tuberous sclerosis complex-related epilepsy followed by long-term treatment (Part B) was conducted. This was a multicenter study conducted at 7 sites in the United States.
# The primary objectives were to assess preliminary safety and efficacy of ganavolone (GNX) as adjunctive therapy for the treatment of primary seizure types in patients with genetically- or clinically-confirmed TSC-related epilepsy through the end of the 12 week treatment period. The primary seizure types (focal motor seizures without impairment of consciousness or awareness, focal seizures with impairment of consciousness or awareness, focal seizures evolving to bilateral, tonic-clonic convulsive seizures, and generalized motor seizures including tonic-clonic, bilateral tonic, bilateral clonic, or atonic/drop seizures) are identified to be the most common, easily identifiable/countable by a parent/caregiver/legally authorized representative (LAR), and most consequential to the patient's quality of life.
# (§2) This was an open label (OL) proof of concept study of adjunctive GNX treatment in patients with a confirmed clinical diagnosis of TSC and/or a mutation in either the TSC1 or TSC2 gene. The trial consisted of two parts: Part A consisted of a 4-week baseline period followed by a 12-week treatment period (4-week titration and 8-week maintenance). For patients not continuing in the OLE period (Part B), a 2-week taper period followed by a 2-week safety period followed. The main difference between Part A and Part B is the length of treatment, less frequent assessments, and the ability to alter drug doses (both GNX and other antiepileptic drug [AED] treatments which includes initiating and stopping other medications) based on investigator evaluation of the patient's clinical course during Part B. Patients with a seizure frequency reduction rate of ≥35% during the 12-week treatment period in Part A compared to baseline were eligible to continue into Part B (“OLE eligible”).
# (§3) After meeting all eligibility criteria, approximately 30 patients aged 2 to 65 years (inclusive) with TSC-related epilepsy were enrolled to receive GNX for a total of 12 weeks (4 week titration, 8 week maintenance) in addition to their standard anti-seizure medication(s) (ASMs). Patients were titrated to 63 mg/kg/day (maximum 1800 mg/day) over 4 weeks, and then maintained at that dose for another 8 weeks. Patients who were not able to tolerate 63 mg/kg/day (or maximum 1800 mg/day) were eligible to be maintained on a lower dose after discussion with the medical monitor. A minimum dose of 33 mg/kg/day or 900 mg/day was generally required during the maintenance period.
# Patients were required to complete a daily diary to determine GNX's effect on seizures. Days without seizures should also have been noted. Additional clinician and caregiver administered instruments were used to assess the efficacy of GNX in TSC and included: Caregiver Global Impression of Change (CGI-C)—Target Behavior and Clinical Global Impression—Improvement (CGI-I) caregiver and CGI-I clinician.
# Ganaxolone was administered in increments of 15 mg/kg/day up to 63 mg/kg/day (maximum 1800 mg/day) given as an oral suspension with food. Patients weighing ≤28 kg were dosed on an mg/kg basis. Patients weighing >28 kg were dosed on a fixed regimen in increments of 450 mg/day up to 1800 mg/day.
# Seizures: All seizure types and number of seizures were to be recorded daily in a diary. Days in which no seizures occur were also to be noted.
# Primary Efficacy Endpoint: The primary efficacy endpoint was the percent change in 28-day primary seizure frequency through the end of the 12-week treatment period (4-week titration and 8-week maintenance) relative to the 4-week baseline. […]
# [2] = tested on: major motor seizures in CDD; test: Marigold phase 3 trial of ganaxolone in CDKL5 deficiency disorder: seizure frequency; type: in vivo, human
# From the text: (§4) The Marigold Study was a phase 3 clinical trial of ganaxolone for the treatment of CDD. The trial met primary endpoint-median 28-day major motor seizure frequency reduction of 32.2 percent compared to 4.9 percent for placebo. […] The most frequent adverse event was somnolence.
# (See, FIG. 10.) These effects are unlikely secondary to age or weight, which were balanced between the two groups.
# [3] = Phase 2 open-label TSC trial (Part A): safety and tolerability, adverse events; type: in vivo, human
# From the text: as §2, §3, §1
# If the next dose was still not tolerated, the patient could drop back to the next lower dose step. A minimum dose of 33 mg/kg/day or 900 mg/day was generally required following the escalation period, during the maintenance period.
# [4] = tested on: UGT1A9, UGT2B7, CYP1A2, CYP2B6, CYP2C8, CYP2C9 or CYP2C19; conditions: cited from earlier work
# [5] = Marigold phase 3 trial of ganaxolone in CDD: safety and tolerability; type: in vivo, human; conditions: CDD patients
# From the text: as §4
# CYP3A4/5 = conditions: cited from earlier work
# [6] = Human pharmacokinetic studies of ganaxolone and CBD; type: in vivo
# From the text: Without wishing to be bound by any particular theory, the inventors believe that the results of the clinical study can be explained by a previously unknown and unexpected drug interaction between ganaxolone and CBD. This is unexpected because ganaxolone is metabolized by CYP3A4/5. Landmark et al. Epilepsia 2021 62:857-873. […] Accordingly, it was unexpected that ganaxolone plasma concentrations, tolerability and efficacy would be affected by concomitant CBD. […] Thus, without wishing to be bound by any particular theory or mechanism, the unexpected drug-drug interaction could be a pharmacodynamic interaction.
# CYP2C19, sequence (P33261 whole entry): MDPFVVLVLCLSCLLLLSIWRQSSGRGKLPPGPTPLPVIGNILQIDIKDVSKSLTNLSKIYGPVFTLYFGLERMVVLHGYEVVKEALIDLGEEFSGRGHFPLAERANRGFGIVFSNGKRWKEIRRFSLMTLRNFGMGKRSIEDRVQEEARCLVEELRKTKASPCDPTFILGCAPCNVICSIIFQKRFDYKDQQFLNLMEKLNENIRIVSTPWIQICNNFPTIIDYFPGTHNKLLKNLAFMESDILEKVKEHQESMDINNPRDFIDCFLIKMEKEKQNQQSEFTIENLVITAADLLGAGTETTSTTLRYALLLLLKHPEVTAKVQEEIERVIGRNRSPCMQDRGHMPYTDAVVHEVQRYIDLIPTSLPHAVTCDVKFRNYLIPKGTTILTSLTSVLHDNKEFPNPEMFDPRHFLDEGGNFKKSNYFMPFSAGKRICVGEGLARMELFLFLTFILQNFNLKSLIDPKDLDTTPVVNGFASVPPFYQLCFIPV
compound,measurement,setting,value
"C=C(C)[C@@H]1CCC(C)=C[C@H]1c1c(O)cc(CCCCC)cc1O [EPIDIOLEX, cannabidiol]",increase in plasma concentration of N-desmethylclobazam,CYP2C19; coadministration with clobazam (a CYP2C19 substrate),3 fold
same,effect on clobazam levels,CYP2C19; coadministration with clobazam,no effect
"CC(=O)[C@H]1CC[C@H]2[C@@H]3CC[C@H]4C[C@](C)(O)CC[C@]4(C)[C@H]3CC[C@]12C [ganaxolone, 3α-hydroxy-3β-methyl-5α-pregnan-20-one]",mean ganaxolone serum concentration in patients with somnolence-related adverse events relative to patients without,[1]; FIG. 3,higher
same,mean ganaxolone plasma concentration with concomitant cannabidiol vs without,[1]; FIG. 4,higher
same,ganaxolone plasma concentration in relation to concomitant cannabidiol dose,"[1]; FIG. 5, n=11",higher doses of cannabidiol were associated with higher plasma concentrations of ganaxolone
same,median reduction in TSC-associated seizure frequency,"TSC-associated seizures; 23 enrolled patients, 12-week treatment vs 4-week baseline",16.6%
same,patients achieving ≥50% reduction in TSC-associated seizure frequency,TSC-associated seizures; all enrolled patients (n=23),30.4%
same,efficacy in patients receiving concomitant EPIDIOLEX (CBD) at 10 mg/kg/day or less,TSC-associated seizures; concomitant CBD 10 mg/kg/day or less,robust efficacy
same,suppression of seizure (efficacy) with concomitant CBD above 10 mg/kg vs no CBD or CBD at or below 10 mg/kg,TSC-associated seizures; concomitant CBD above 10 mg/kg,lower suppression of seizure
same,fraction of patients with robust reduction in TSC-associated seizures,TSC-associated seizures; including those on concomitant cannabidiol and everolimus,⅓
same,median percent reduction in focal seizure frequencies,TSC-associated seizures; n=19,25.2%
same,patients achieving ≥50% reduction in TSC-associated seizure frequency,TSC-associated seizures; patients that received concomitant cannabidiol (n=12),25%
same,patients achieving ≥50% reduction in TSC-associated seizure frequency,TSC-associated seizures; patients that received concomitant everolimus (n=11),36.4%
same,"median percent reduction in TSC-associated seizures, no concomitant cannabidiol vs concomitant cannabidiol",TSC-associated seizures; patients without concomitant cannabidiol (n=11) compared with patients on cannabidiol,greater median percent reduction
same,median 28-day major motor seizure frequency reduction,"[2]; CDD patients, ganaxolone arm",32.2%
same,efficacy in patients who experienced somnolence-related adverse events vs those who did not,"[2]; ganaxolone treatment group (N=49), FIG. 10",reduced efficacy
same,"patients that discontinued Part A, number",[3]; 23 enrolled,6 patients
same,"patients that discontinued Part A, percent",[3]; 23 enrolled,26.1%
same,"fatigue, number of patients reporting",[3]; 23 enrolled TSC patients,3 patients
same,"fatigue, percent of patients reporting",[3]; 23 enrolled TSC patients,13.0%
same,overall tolerability,[3]; 23 enrolled TSC patients,generally well-tolerated
same,patients with seizure assessed by the principal investigator as treatment related,[3]; 23 enrolled TSC patients,One
same,"sedation, number of patients reporting",[3]; 23 enrolled TSC patients,3 patients
same,"sedation, percent of patients reporting",[3]; 23 enrolled TSC patients,13.0%
same,"somnolence, number of patients reporting",[3]; 23 enrolled TSC patients,10 patients
same,"somnolence, percent of patients reporting",[3]; 23 enrolled TSC patients,43.5%
same,"somnolence-related adverse events (somnolence, sedation, fatigue and lethargy), number of patients",[3]; 23 enrolled TSC patients,17 patients
same,ganaxolone tolerability issues with concomitant CBD above 10 mg/kg vs no CBD or CBD at or below 10 mg/kg,[3]; concomitant CBD above 10 mg/kg,greater ganaxolone tolerability issues
same,patients on concomitant cannabidiol experiencing somnolence-related adverse events,[3]; concomitant cannabidiol (n=12),All patients
same,patients that discontinued Part A because of an adverse event,[3]; of the patients that discontinued,4
same,metabolism by enzymes implicated in CBD interactions with other drugs,[4],not significantly metabolized
same,discontinuation rate in the active treatment arm,[5],less than 5%
same,most frequent adverse event,[5],somnolence
same,overall tolerability,[5],generally well tolerated
same,metabolizing enzyme,CYP3A4/5,CYP3A4/5
same,pharmacokinetic drug-drug interaction of ganaxolone and CBD,[6],did not provide evidence of a pharmacokinetic drug-drug interaction
